Results: ChEMBL document CHEMBL1255485, “In vitro activity of fidaxomicin (OPT-80) tested against contemporary clinical isolates of Staphylococcus spp. and Enterococcus spp” (2010)
Values after ≈ are worked out from the molar mass of the structure shown.

Key:
Type in all cases: functional
Staphylococcus aureus [1] = test: Antibacterial activity against methicillin-susceptible Staphylococcus aureus assessed as percent resistant isolates by broth microdilution method
Staphylococcus aureus [2] = test: Antibacterial activity against methicillin-resistant Staphylococcus aureus assessed as percent resistant isolates by broth microdilution method
Staphylococcus [3] = test: Selectivity ratio of MBC to MIC for coagulase-negative Staphylococcus
Staphylococcus [4] = test: Antibacterial activity against Staphylococcus by agar dilution technique
Staphylococcus [5] = test: Antibacterial activity against methicillin-resistant coagulase-negative Staphylococcus by broth microdilution method
Staphylococcus aureus [6] = test: Selectivity ratio of MIC50 for methicillin-susceptible Staphylococcus aureus to MIC50 for methicillin-resistant Staphylococcus aureus
[7] = Selectivity ratio of MIC90 for vancomycin-resistant Enterococcus faecium to MIC90 for vancomycin-resistant Enterococcus faecalis
Enterococcus faecalis [8] = test: Selectivity ratio of MBC to MIC for Enterococcus faecalis
Enterococcus faecium [9] = test: Antibacterial activity against vancomycin-resistant Enterococcus faecium by broth microdilution method
Enterococcus faecium [10] = test: Selectivity ratio of MBC to MIC for Enterococcus faecium
Staphylococcus aureus [11] = test: Antibacterial activity against linezolid-nonsusceptible Staphylococcus aureus by broth microdilution method
Enterococcus = test: Antibacterial activity against Enterococcus by agar dilution technique
[12] = Selectivity ratio of MIC50 for vancomycin-resistant Enterococcus faecium to MIC50 for vancomycin-resistant Enterococcus faecalis
Staphylococcus aureus [13] = test: Antibacterial activity against methicillin-susceptible Staphylococcus aureus by broth microdilution method
Staphylococcus aureus [14] = test: Antibacterial activity against methicillin-resistant Staphylococcus aureus by broth microdilution method
Enterococcus faecalis [15] = test: Antibacterial activity against vancomycin-resistant Enterococcus faecalis by broth microdilution method
Staphylococcus aureus [16] = test: Selectivity ratio of MBC to MIC for Staphylococcus aureus
[17] = Selectivity ratio of MIC50 for vancomycin-susceptible Enterococcus faecium to MIC50 for vancomycin-susceptible Enterococcus faecalis
Enterococcus faecium [18] = test: Antibacterial activity against vancomycin-susceptible Enterococcus faecium by broth microdilution method
Staphylococcus [19] = test: Antibacterial activity against methicillin-susceptible coagulase-negative Staphylococcus by broth microdilution method
Enterococcus faecalis [20] = test: Antibacterial activity against vancomycin-susceptible Enterococcus faecalis by broth microdilution method
Enterococcus faecalis [21] = test: Antibacterial activity against vancomycin-susceptible Enterococcus faecalis assessed as percent susceptible isolates by broth microdilution method
Enterococcus faecalis [22] = test: Antibacterial activity against vancomycin-susceptible Enterococcus faecalis assessed as percent resistant isolates by broth microdilution method
Staphylococcus [23] = test: Antibacterial activity against methicillin-susceptible coagulase-negative Staphylococcus assessed as percent susceptible isolates by broth microdilution method
Enterococcus faecium [24] = test: Antibacterial activity against vancomycin-resistant Enterococcus faecium assessed as percent resistant isolates by broth microdilution method
Enterococcus faecium [25] = test: Antibacterial activity against vancomycin-susceptible Enterococcus faecium assessed as percent resistant isolates by broth microdilution method
Enterococcus faecalis [26] = test: Antibacterial activity against vancomycin-resistant Enterococcus faecalis assessed as percent resistant isolates by broth microdilution method
Enterococcus faecium [27] = test: Antibacterial activity against vancomycin-susceptible Enterococcus faecium assessed as percent susceptible isolates by broth microdilution method
Enterococcus faecium [28] = test: Antibacterial activity against vancomycin-resistant Enterococcus faecium assessed as percent susceptible isolates by broth microdilution method
Staphylococcus [29] = test: Antibacterial activity against methicillin-resistant coagulase-negative Staphylococcus assessed as percent susceptible isolates by broth microdilution method
Staphylococcus [30] = test: Antibacterial activity against methicillin-resistant coagulase-negative Staphylococcus assessed as percent resistant isolates by broth microdilution method
Enterococcus faecalis [31] = test: Antibacterial activity against vancomycin-resistant Enterococcus faecalis assessed as percent susceptible isolates by broth microdilution method

Compound	Activity (Staphylococcus aureus [1]) [%]	Activity (Staphylococcus aureus [2]) [%]	MIC50 (Staphylococcus [5]) [µg/mL]	MIC90 (Staphylococcus [5]) [µg/mL]	MIC50 (Enterococcus faecium [9]) [µg/mL]	MIC90 (Enterococcus faecium [9]) [µg/mL]	MIC50 (Staphylococcus aureus [13]) [µg/mL]	MIC90 (Staphylococcus aureus [13]) [µg/mL]	MIC50 (Staphylococcus aureus [14]) [µg/mL]	MIC90 (Staphylococcus aureus [14]) [µg/mL]	MIC (Enterococcus faecalis [15]) [µg/mL]	MIC50 (Enterococcus faecalis [15]) [µg/mL]	MIC90 (Enterococcus faecalis [15]) [µg/mL]	MIC50 (Enterococcus faecium [18]) [µg/mL]	MIC90 (Enterococcus faecium [18]) [µg/mL]	MIC50 (Staphylococcus [19]) [µg/mL]	MIC90 (Staphylococcus [19]) [µg/mL]	MIC (Enterococcus faecalis [20]) [µg/mL]	MIC50 (Enterococcus faecalis [20]) [µg/mL]	MIC90 (Enterococcus faecalis [20]) [µg/mL]	further results
CCC[C@@H]1C[C@@H](C(=O)N[C@@H]([C@H]2O[C@H](SC)[C@H](O)[C@@H](O)[C@H]2O)[C@H](C)Cl)N(C)C1 [CLINDAMYCIN]	2.3	43.8																			
CC[C@H]1OC(=O)[C@H](C)[C@@H](O[C@H]2C[C@@](C)(OC)[C@@H](O)[C@H](C)O2)[C@H](C)[C@@H](O[C@@H]2O[C@H](C)C[C@H](N(C)C)[C@H]2O)[C@](C)(O)C[C@@H](C)C(=O)[C@H](C)[C@@H](O)[C@]1(C)O [ERYTHROMYCIN]	16.3	87.5																			
CCc1c(Cl)c(O)c(Cl)c(O)c1C(=O)O[C@H]1[C@H](O)[C@H](OC)[C@H](OC/C2=C\C=C\C[C@H](O)/C(C)=C/[C@H](CC)[C@@H](O[C@@H]3OC(C)(C)[C@@H](OC(=O)C(C)C)[C@H](O)[C@@H]3O)/C(C)=C/C(C)=C/C[C@@H]([C@@H](C)O)OC2=O)O[C@@H]1C [FIDAXOMICIN]			1 (≈ 0.945 µM)	4 (≈ 3.78 µM)	4 (≈ 3.78 µM)	4 (≈ 3.78 µM)	8 (≈ 7.56 µM)	8 (≈ 7.56 µM)	4 (≈ 3.78 µM)	8 (≈ 7.56 µM)	2 (≈ 1.89 µM)	2 (≈ 1.89 µM)	2 (≈ 1.89 µM)	4 (≈ 3.78 µM)	4 (≈ 3.78 µM)	2 (≈ 1.89 µM)	4 (≈ 3.78 µM)	2 (≈ 1.89 µM)	2 (≈ 1.89 µM)	4 (≈ 3.78 µM)	Selectivity ratio (Staphylococcus [3]): >=16; MIC90 (Staphylococcus [4]): 2 µg/mL (≈ 1.89 µM); Ratio (Staphylococcus aureus [6]): 2; Ratio [7]: 2; Selectivity ratio (Enterococcus faecalis [8]): >=16; Selectivity ratio (Enterococcus faecium [10]): >=16; MIC (Staphylococcus aureus [11]): > 4 µg/mL; MIC90 (Enterococcus): 8 µg/mL (≈ 7.56 µM); Ratio [12]: 2; Selectivity ratio (Staphylococcus aureus [16]): >=16; Ratio [17]: 2
C[C@H]1COc2c(N3CCN(C)CC3)c(F)cc3c(=O)c(C(=O)O)cn1c23.C[C@H]1COc2c(N3CCN(C)CC3)c(F)cc3c(=O)c(C(=O)O)cn1c23.O [LEVOFLOXACIN]	9.3	56.3																			
CO[C@H]1/C=C/O[C@@]2(C)Oc3c(C)c(O)c4c(O)c(c(/C=N/N5CCN(C)CC5)c(O)c4c3C2=O)NC(=O)/C(C)=C\C=C\[C@H](C)[C@H](O)[C@@H](C)[C@@H](O)[C@@H](C)[C@H](OC(C)=O)[C@@H]1C [RIFAMPIN]	2.3	18.8																			
CN[C@H](CC(C)C)C(=O)N[C@H]1C(=O)N[C@@H](CC(N)=O)C(=O)N[C@H]2C(=O)N[C@H]3C(=O)N[C@H](C(=O)N[C@H](C(=O)O)c4cc(O)cc(O)c4-c4cc3ccc4O)[C@H](O)c3ccc(c(Cl)c3)Oc3cc2cc(c3O[C@@H]2O[C@H](CO)[C@@H](O)[C@H](O)[C@H]2O[C@H]2C[C@](C)(N)[C@H](O)[C@H](C)O2)Oc2ccc(cc2Cl)[C@H]1O [VANCOMYCIN]	0	15.6	2 (≈ 1.38 µM)	2 (≈ 1.38 µM)	> 16	> 16	1 (≈ 0.69 µM)	1 (≈ 0.69 µM)	1 (≈ 0.69 µM)	16 (≈ 11 µM)	> 16	> 16	> 16	> 0.5	1 (≈ 0.69 µM)	1 (≈ 0.69 µM)	2 (≈ 1.38 µM)	1 (≈ 0.69 µM)	1 (≈ 0.69 µM)	1 (≈ 0.69 µM)	Activity (Enterococcus faecalis [21]): 100%; Activity (Enterococcus faecalis [22]): 0%; Activity (Staphylococcus [23]): 100%; Activity (Enterococcus faecium [24]): 100%; Activity (Enterococcus faecium [25]): 0%; Activity (Enterococcus faecalis [26]): 100%; Activity (Enterococcus faecium [27]): 100%; MIC (Enterococcus faecium [9]): > 16 µg/mL; Activity (Enterococcus faecium [28]): 0%; Activity (Staphylococcus [29]): 100%; Activity (Staphylococcus [30]): 0%; Activity (Enterococcus faecalis [31]): 0%
